Test results: patent publication US4327213A, “Alpha-hydrocarbonoxyimino-pyrazineacetonitriles” (ACF Chemiefarma VA, priority 1977, dated 1982)
Like-named read-outs stand apart in the source and are kept apart here.

What was measured:
[1] = tested on: indomethacin-induced gastric damage; assay: Inhibition of indomethacin-induced gastric damage in the rat (anti-ulcer activity, method of Elegbe); assay type: in vivo; conditions: po, 5 h, indomethacin 15 mg/kg s.c., compound 100 mg/kg orally, 30 min prior to and 2 h post indomethacin, read-out: Table 1 % Inhibition (mean inhibition of gastric damage)
Description: This was assessed by the inhibition of indomethacin-induced gastric damage in the rat according to the method of Elegbe (Israeli J. Med. Sci. (1974), 10, 1451).
Rats were starved overnight, given indomethacin subcutaneously (15 mg/kg) and sacrificed 5 hours later. Stomachs were inflated with 0.9% saline, cut along the greater curvature, pinned out and scored for gastric damage by the following system:
Score 1-3 according to the degree of erythema and slight haemorrhage.
Score 4-6 according to degree of mucosal erosion.
Score 7-9 according to depth of gastric damage.
Groups of 7 rats were used for each treatment level of compound, and a similar group receiving vehicle only was set up on each occasion of testing. Compound or vehicle was administered orally 30 minutes prior to, and at 2 hours post, dosing with indomethacin. Mean values per treatment were obtained using the above scoring system and the Mann Witney test applied for significance between such values. The mean inhibition of gastric damage from a number of experiments is shown in the following Table 1; the dosage being 100 mg/kg orally.

gastric secretion [2] = assay: Effects on gastric secretion in the pyloric ligated rat (method of Shay et al.); assay type: in vivo; conditions: intraduodenal, 100 mg/kg i.d., sacrificed 3 hours later
Description: 2. Effects on Gastric Secretion, in the Pyloric Ligated Rat
The method described by Shay, et al. (Gastroenterol (1945) 26, 906) was used. After overnight starvation the pylorus of a rat was ligated under halothane anaesthesia, the Compound vehicle only administered intraduodenally and the rats allowed to recover. They were sacrificed 3 hours later and the gastric juice removed. After measurement of the volume of secretion, its hydrogen ion concentration, [H^+ ], was determined by titration with 0.05 N NaOH to pH 7. Groups of 4-6 animals were used for each treatment and the inhibitory effect of the Compound was ascertained by comparison of the mean values obtained with those from a simultaneously set up control group of animals which received vehicle only. Students `t` test was applied for significance between groups. The mean values for % inhibition obtained for a number of experiments are shown in the following Table 2, the dosage being 100 mg/kg i.d.

Acute toxicity in mice = conditions: mouse, in vivo
Description: (§1) 5 (Z-isomer) up to 536 or 824 mg/kg in mice and rats respectively. The acute oral median lethal dose of compound no. 5 is 1268 mg/kg in male mice and 2311 mg/kg in male rats.

Acute toxicity in rats = conditions: rat, in vivo
Description: as §1

gastric secretion [3] = assay: Effects on gastric secretion in the pyloric ligated rat (method of Shay et al.); assay type: in vivo; conditions: intraduodenal, 50 mg/kg i.d., sacrificed 3 hours later
[4] = read-out: Table 2 % Inhibition Volume (volume of gastric secretion)
[5] = read-out: Table 2 % Inhibition [H^+ ] (hydrogen ion concentration)

SMILES | inhibition in vivo at 100 mg/kg [1] [%] | inhibition in vivo at 100 mg/kg (gastric secretion [2]; [4]) [%] | inhibition in vivo at 100 mg/kg (gastric secretion [2]; [5]) [%] | other results
CO/N=C(\C#N)c1cnccn1 [5 (Z-isomer), α-Methoxyiminopyrazineacetonitrile] | 94 | 70 | 73 | NOAEL (Acute toxicity in mice; mice, single doses, read-out: Single dose up to which no adverse effects were seen): ≥ 536 mg/kg; NOAEL (Acute toxicity in rats; rats, single doses, read-out: Single dose up to which no adverse effects were seen): ≥ 824 mg/kg
CO/N=C(\C#N)c1ccnc2ccccc12 [6 ll] | 85 | 85 | 23 | –
CO/N=C(\C#N)c1ccc2ccc(C)cc2n1 [6 gg] | 42 | – | – | –
CO/N=C(\C#N)c1c[n+]([O-])ccn1 [14 a] | 91 | 50 | 34 | –
CO/N=C(\C#N)c1nccc2ccccc12 [6 mm] | 42 | 28 | – | –
CON=C(c1ccccn1)C(F)(F)F [Compound 7, 2-Pyridinyl trifluoromethyl ketone, O-methyl oxime] | – | 74 | 33 | –
CC(C)O/N=C(\C#N)c1cnccn1 [6 c] | 43 | 52 | – | –
CO/N=C(/C#N)c1cnccn1 [5 (E-isomer), α-Methoxyiminopyrazineacetonitrile] | 96 | – | – | –
CO/N=C(/C(N)=O)c1ccccn1 [9 c] | 65 | 40 | – | –
CO/N=C(\C(N)=S)c1ccccn1 [8 (and 10), α-Methoxyimino-2-pyridinethioacetamide] | 74 | – | – | inhibition in vivo at 50 mg/kg (gastric secretion [3]; [4]): 32%; inhibition in vivo at 50 mg/kg (gastric secretion [3]; [5]): 24%
N#C/C(=N\OC1CCCCC1)c1cnccn1 [6 e] | – | 62 | 48 | –
CON=Cc1cnccn1 [12 (and 13), Pyrazine carboxaldehyde, O-methyl oxime] | 66 | 42 | – | –
CON=C(C#N)c1cnccn1 [Compound 5, α-Methoxyiminopyrazineacetonitrile] | – | – | – | LD50 (Acute toxicity in mice; male mice, oral, read-out: Acute oral median lethal dose): 1270 mg/kg; LD50 (Acute toxicity in rats; male rats, oral, read-out: Acute oral median lethal dose): 2310 mg/kg
CON=C(C#N)c1cncnc1 [6 dd] | 77 | 35 | 39 | –
CCO/N=C(\C#N)c1cnccn1 [6 b] | 68 | 66 | 60 | –
CON=C(C#N)c1ccccn1 [6 a] | 62 | 62 | – | –
CO/N=C(\C#N)c1cnc2ccccc2n1 [6 nn] | 79 | 28 | – | –
CO/N=C(\C#N)c1ccc2ccccc2n1 [6 ee] | 84 | 28 | – | –
CON=C(C#N)c1cccnc1 [6 bb] | 72 | – | – | –
CO/N=C(\C#N)c1c[n+](C)ccn1 [Compound 15, α-Methoxyimino-2-pyrazineacetonitrile-4-methiodide] | 55 | – | – | –
CCCCO/N=C(\C#N)c1cnccn1 [6 d] | 50 | – | – | –
CO/N=C(\C#N)c1ccc2cc(C)ccc2n1 [6 ff] | 42 | – | – | –
CON=C(C#N)c1ccncc1 [6 cc] | 95 | 80 | 39 | –
CO/N=C(/C#N)c1cnc2ccccn12 [6 qq] | 100 | 77 | 29 | –
CON=C(C#N)c1cccc(Cl)n1 [6 aa] | – | 35 | 23 | –
CO/N=C(\C(N)=O)c1ccccn1 [9 b] | 56 | 26 | – | –
